Reference: US20240299358A1, “COMPOSITIONS AND METHODS FOR DIAGNOSIS AND TREATMENT OF AUTOIMMUNE DISEASES” (DUKE UNIVERSITY, priority 2021, published 2024)

Assays:
eHsp90 [1] = test: Flow cytometry uptake of fluor-tethered Hsp90 inhibitors by T cells from human PBMCs; format: cell-based
Description: T-cell activation: PBMC aliquots (ZenBio SER-PBMC-F) were washed in RPMI-1640 with 10% FBS and PSG and then rested overnight in a T-75 flask. The suspended cells were then transferred to a fresh flask and activated in fresh RPMI-1640/10% FBS/PSG by 3:20,000 anti-CD3 (BioLegend 317303), 3:20,000 anti-CD28 (BioLegend 302913), and 1:10,000 (30 IU/mL) human IL-2 (CST 8907SC) and incubated for up to 72 hours. In the experiments with longer activation, samples were diluted 1:3 into fresh media containing hIL-2 at 72 hours post initial stimulation with CD3/CD28 antibodies.
Flow Cytometry: The activated/rested cells were plated into a 96-well round bottom plate and pelleted at low speed. Cells were resuspended in chilled media containing titrated HS-131 or HS-198 (in 1% DMSO) and stained for 30 minutes at RT. Fluorochrome tagged inhibitors and media were washed away with a PBS wash, followed by a PBS wash containing 3% NMS. Surface antibody stains were performed in 3% NMS/PBS for 30 minutes followed by PBS washes (2x). Samples were analyzed on BD FACSCanto II flow cytometer. Permeabilized samples were prepared as previously described followed by fixation in 4% Formaldehyde/PBS overnight at 4° C. Sample analysis was performed with Flowing Software and FlowJo.
A hallmark of T cell function is to proliferate rapidly in response to antigen presentation along with appropriate cytokine and costimulatory signaling. This leads to the induction of the chaperone machinery which is essential in facilitating this process. In some respects, antigen induced T cell proliferation may be analogous to oncogene driven metastasis. Therefore, to investigate whether proliferating T cells similarly express eHsp90 during T cell activation, their ability to absorb fluor-tethered Hsp90 inhibitors following an anti-CD3/CD28 challenge was examined (see. FIGS. 2A-2E). The structures of two types of fluor-tethered Hsp90 inhibitors (HS-131 and […]) that were used in the present studies are shown in FIG. 2A. […]

eHsp90 [2] = test: In vivo tracking of eHsp90 expression in CIA mouse model of RA (flow cytometry, CryoViz imaging); details: 6 hours post tail vein injection, CD4 and CD8 T cells (FIG. 5B)
Description: FIG. 5A is a schematic of CIA mouse model of RA experimental design, wherein mice were inoculated with CIA on day 0) and 21. […] 6-hours post treatment mice were whole body cryopreserved. […] Gated regions indicate CD4 and CD8 T-Cell populations isolated from individual mice. eHsp90 expression in CD4 and CD8 T cells 6 hours post HS-131 or HS-198 treatment. N=3+SD. Experiments represent 3 biological replicates.
CIA Disease: Collagen was prepared at 4 mg/ml in 0.01 N acetic acid. Equal volumes of 4 mg/ml collagen and 5 mg/ml Freund's complete adjuvant were emulsified by hand mixing with syringes for approximately 5 min, at which point a bead of this material holds its form when placed in water. On study days 0 and 21, animals were anesthetized with isoflurane and given intradermal injections of a total of 400 μg of type II collagen in Freund's complete adjuvant at the base of the tail.
CryoViz™ Imaging: Whole mice were imaged at 10.23 μm×10.23 μm in-plane resolution using an Olympus MVX-10 microscope with a 1X objective and 0.63× magnification and 40 μm section thickness, using the Cryo Viz™ (BioInVision, Inc., Cleveland, USA). CryoViz™ is a fully automated, serial sectioning-and-imaging system which provides 3-dimensional, tiled, microscopic anatomical bright field and molecular fluorescence images over large fields-of-view such as a whole mouse. Images were acquired using a dual band FITC/TxRed fluorescence filter (Chroma, Inc., Rockingham, VT), a liquid crystal RGB filter and a low-noise monochrome camera. Raw images acquired by the Cryo Viz™ were processed to generate 3D color anatomical brightfield and molecular fluorescence volumes using the Cryo Viz™ Preprocessor software (BioIn Vision, Inc., Cleveland, Ohio). These 3D volumetric image data were then processed using the CryoViz™ 3D Visualizer software (BioInVision, Inc., Cleveland, USA) to obtain 3D reconstructed brightfield and fluorescence volume renderings and movies with 2D slice cutaway animations, showing the 2D/3D biodistribution of TxRed labeled HS-131 within the mouse volume.
This was consistently seen in cell culture, tumor cell xenografts and mouse models of spontaneous metastatic disease (Barrott et al. Chem Biol 20. 1187-1197 (2013)). […] To determine if this phenomenon occurred within the context of a fully functional immune system, the collagen induced arthritic (CIA) mouse model of human rheumatoid arthritis (RA) was utilized (Rice et al. Arthritis Rheum 58. 3765-3775 (2008)). Mice (DBA/IlacJ ˜8 weeks old) reliably develop polyarthritis when immunized against bovine type II collagen (Scarneo et al. Arthritis Res Ther 21, 292 (2019): Campbell et al., Ann Rheum Dis 56, 364-368 (1997)). The disease that occurs is usually non-symmetric, and any combination of paws/joints may be affected. Mice were injected […] with bovine collagen at Day (and then again 21 days later (FIG. 5A). This second injection triggered the development of the CIA related symptoms over the next several days within the joints. A primary mediator of local inflammatory responses in autoimmunity are invading T cell populations recognizing foreign antigens. To determine if invading T cells at sites of active disease expressed eHsp90, the animals were injected with HS-131 or HS-198. This was done at the peak of RA symptoms following the second immune challenge. After 6 hours, the animals were euthanized, immediately cryo-frozen in liquid nitrogen and cryo-sectioned (see, FIG. 5A).
Approximately, 500 40 μm slices were made and each slice imaged with both bright field and by fluorescence at Ex640 nm/Em680 nm. Evaluation of the biodistribution was then made by histological examination of individual slices and after in silico reconstruction of the entire mouse anatomy (see, FIGS. 5B-5E).

SMILES | uptake of inactive analogue by stimulated T cells (eHsp90 [1]; 10 μM (FIG. 2D)) | probe signal (eHsp90 expression) in T cells of PBMC populations from CIA mice by flow cytometry (eHsp90 [2]) | fluor signal on competition with Hsp90 inhibitor (eHsp90 [1]; saturating dose, 10-fold excess of ganetespib over 10 μM HS-131 (FIG. 2D))
Cc1nn(-c2ccc(C(=O)N(C)C)c(NCCCOCCOCCOCCOCCOCCCNCc3ccc(C(=C\C=C4/N(CCCCS(=O)(=O)O)c5ccccc5C4(C)C)/C=C/C4=[N+](CCCCS(=O)(=O)[O-])c5ccccc5C4(C)C)cc3)c2)c2c1C(=O)CC(C)(C)C2 [HS-198] | minimal uptake | No signal | 
CC(C)c1cc(-c2n[nH]c(=O)n2-c2ccc3c(ccn3C)c2)c(O)cc1O [ganetespib, reference compound] |  |  | effectively blocked
